Marks after values point to notes of the source that are not given here.
Key:
[1] = tested on: Colo205 (Colon) xenograft; assay: Subcutaneous xenograft model, Colo205; assay type: in vivo, mouse
Protocol: (§1) Tumor cells were injected subcutaneously into the right flank region of 7-week-old nude mice. […] Tumor diameters were measured with a vernier caliper and body weight was measured twice weekly. The tumor volume (mm^3) was calculated using the formula: length (mm) × width (mm)^2 × 1/2. […] When the tumor volume was reduced, the ΔT/C values were calculated by the following formula: ΔT/C (%) = (TVn - TV1)/TV1 × 100, where TVn is the tumor volume of treated mice at day n. The number of mice is ten for control group in Table 1 and five for each group in other experiments. Mice in control group were treated with vehicle.

[2] = tested on: SEKI model; assay: Subcutaneous xenograft model, SEKI; assay type: in vivo, mouse; details: 100 mg/kg orally twice daily for 7 days
Protocol: as §1
Each group consisted of 5 mice. […] The relationship between the antitumor activity and MVD is shown in (B), and that between the antitumor activity and the % of pericyte coverage of vessels is shown in (C). Each symbol (○) indicates the mean of MVD or pericyte coverage in each tumor xenograft model. (D) Vascular score in the lenvatinib-sensitive and –relatively resistant groups. The vascular score was the sum of the MVD and pericyte coverage scores.

[3] = molecular target: T1, FGFR2 (Homo sapiens, UniProt P21802); assay: In vitro kinase assay FGFR2; assay type: biochemical
T1 construct: purchased Carna Biosciences, Inc. (Kobe, Japan)
Protocol: (§2) Tyrosine kinase assays were performed by an ELISA and Off-chip Mobility Shift Assay (MSA) by Carna Biosciences, Inc. (Kobe, Japan).

[4] = tested on: HUVECs; assay: FGF-2 induced sandwich tube formation (sTF) of HUVECs; assay type: cell-based; details: Homo sapiens, HUVEC, 96 h; sTF assay, EGF 10 ng/mL with FGF2 20 ng/ml, 4 days
Protocol: (§3) In vitro sandwich tube formation (sTF) assay, HUVECs in SFM containing EGF (10 ng/mL) with VEGF (20 ng/mL) or FGF2 (20 ng/ml) were plated onto the 1st layer of collagen gel (Nitta Gelatin, Tokyo, Japan) at 1.0 × 10^5 cells in 24-well plates and a 2nd layer of collagen gel was added onto the HUVECs. […] After 4 days, MTT solution was added and photomicrographs of tube formation were taken with a light microscope. The tube length of capillaries was measured using image analysis (Angiogenesis Image Analyzer, ver. 1.04; Kurabo, Osaka, Japan).

[5] = tested on: SK-OV-3 (Ovary) xenograft; assay: Subcutaneous xenograft model, SK-OV-3; assay type: in vivo, mouse; details: SK-OV-3 xenograft
Protocol: as §1

[6] = tested on: HUVECs; assay: VEGF-induced proliferation of HUVECs; assay type: cell-based; details: Homo sapiens, HUVEC, 72 h; VEGF 20 ng/mL, 3 days, WST-1
Protocol: (§4) Tumor cells were plated at 1 to 2 × 10^3 cells/well on 96-well plates in 0.1 ml of RPMI 1640 containing 10% FBS. […] The HUVEC proliferation assay were performed by a method described previously. […] After incubation for 3 days, cell viability was determined by measuring the absorbance of WST-1 reagent (DOJINDO, Kumamoto, Japan). Percent inhibition of cell growth was determined by the formula below: Inhibition (%) = Mean value of OD of control wells - OD of treated wells * 100/Mean value of OD of control wells. Each value is expressed as the mean. […] All experiments were done in either duplicate or quadruplicate.

[7] = tested on: H460 (Lung) xenograft; assay: Subcutaneous xenograft model, H460; assay type: in vivo, mouse
Protocol: as §1

[8] = molecular target: T2, FGFR1 (Homo sapiens, UniProt P11362); assay: In vitro kinase assay FGFR1; assay type: biochemical
T2 construct: purchased Carna Biosciences, Inc. (Kobe, Japan)
Protocol: as §2

[9] = tested on: H460 (Lung); assay: Tumor cell proliferation assay (MTT), H460; assay type: cell-based; details: Homo sapiens, NCI-H460; read-out: IC50 in vitro anti-proliferative activity
Protocol: (§5) Tumor cells were plated at 1 to 2 × 10^3 cells/well on 96-well plates in 0.1 ml of RPMI 1640 containing 10% FBS. […] The HUVEC proliferation assay were performed by a method described previously. […] Percent inhibition of cell growth was determined by the formula below: Inhibition (%) = Mean value of OD of control wells - OD of treated wells * 100/Mean value of OD of control wells. Each value is expressed as the mean. […] All experiments were done in either duplicate or quadruplicate.

[10] = Tolerability in tumor-bearing nude mice; assay type: in vivo
Protocol: as §1

[11] = tested on: DU145 (Prostate); assay: Tumor cell proliferation assay (MTT), DU145; assay type: cell-based; details: Homo sapiens, DU-145, read-out: IC50 in vitro anti-proliferative activity
Protocol: as §5

[12] = tested on: KP-1/VEGF transfectants; assay: In vitro growth of KP-1/VEGF transfectants; assay type: cell-based; details: Homo sapiens
Protocol: as §4

[13] = tested on: MIApaca-II (Pancreas) xenograft; assay: Subcutaneous xenograft model, MIApaca-II; assay type: in vivo, mouse
Protocol: as §1

[14] = tested on: A431 (Epidermoid) xenograft; assay: Subcutaneous xenograft model, A431; assay type: in vivo, mouse
Protocol: as §1

[15] = tested on: Colo205 (Colon); assay: Tumor cell proliferation assay (MTT), Colo205; assay type: cell-based; details: Homo sapiens, COLO 205, read-out: IC50 in vitro anti-proliferative activity
Protocol: as §5

[16] = molecular target: T3, VEGFR1 (FLT1) (Homo sapiens, UniProt P17948); assay: In vitro kinase assay VEGFR1 (FLT1); assay type: biochemical
T3 construct: purchased Carna Biosciences, Inc. (Kobe, Japan)
Protocol: as §2

[17] = tested on: HUVECs; assay: VEGF-induced sandwich tube formation (sTF) of HUVECs; assay type: cell-based; details: Homo sapiens, HUVEC, 96 h; sTF assay, EGF 10 ng/mL with VEGF 20 ng/mL, 4 days
Protocol: as §3

[18] = tested on: DU145 (Prostate) xenograft; assay: Subcutaneous xenograft model, DU145; assay type: in vivo, mouse
Protocol: as §1

[19] = molecular target: T4, KIT (Homo sapiens, UniProt P10721); assay: In vitro kinase assay KIT; assay type: biochemical
T4 construct: purchased Carna Biosciences, Inc. (Kobe, Japan)

[20] = tested on: MDA-MB 435 (Melanoma) xenograft; assay: Subcutaneous xenograft model, MDA-MB 435; assay type: in vivo, mouse; details: MDA-MB 435 xenograft
Protocol: as §1

[21] = tested on: HUVECs; assay: FGF-2 induced proliferation of HUVECs; assay type: cell-based; details: Homo sapiens, HUVEC, 72 h; FGF2 20 ng/mL, 3 days, WST-1
Protocol: as §4

[22] = tested on: A431 (Epidermoid); assay: Tumor cell proliferation assay (MTT), A431; assay type: cell-based; details: Homo sapiens, A-431, read-out: IC50 in vitro anti-proliferative activity
Protocol: as §5

[23] = tested on: SK-OV-3 (Ovary); assay: Tumor cell proliferation assay (MTT), SK-OV-3; assay type: cell-based; details: Homo sapiens, read-out: IC50 in vitro anti-proliferative activity
Protocol: as §5

[24] = molecular target: T5, VEGFR3 (FLT4) (Homo sapiens, UniProt P35916); assay: In vitro kinase assay VEGFR3 (FLT4); assay type: biochemical
T5 construct: purchased Carna Biosciences, Inc. (Kobe, Japan)
Protocol: as §2

[25] = tested on: MIApaca-II (Pancreas); assay: Tumor cell proliferation assay (MTT), MIApaca-II; assay type: cell-based; details: Homo sapiens, read-out: IC50 in vitro anti-proliferative activity
Protocol: as §5

[26] = molecular target: T6, FGFR3 (Homo sapiens, UniProt P22607); assay: In vitro kinase assay FGFR3; assay type: biochemical
T6 construct: purchased Carna Biosciences, Inc. (Kobe, Japan)
Protocol: as §2

[27] = tested on: MDA-MB 435 (Melanoma); assay: Tumor cell proliferation assay (MTT), MDA-MB 435; assay type: cell-based; details: Homo sapiens, read-out: IC50 in vitro anti-proliferative activity
Protocol: as §5

[28] = tested on: FGFR-driven proliferation; details: read-out: IC50, FGFR-driven proliferation in cell assays; cited from earlier work
[29] = tested on: FGF-driven in vivo angiogenesis (KP-1/FGF transfectants); assay: Mouse dorsal air sac (DAS) assay, KP-1/FGF; details: 100 mg/kg, orally once daily for 4 days
Protocol: (§6) An in vivo angiogenesis assay in mice was performed as described previously with minor changes. Millipore chambers (Millipore, Bedford, MA) were packed with 1.0 × 10^7 KP-1 mock, KP-1/VEGF or KP-1/FGF transfectants and transplanted into the dorsal air sac of C57BL/6 mice (n = 3–5 each, with experiments performed in triplicate). For a pseudo-operation, collagen I gel was injected into the Millipore chambers. Photographs were taken 4 days after implantation.
(§7) (A) In vivo angiogenesis in mouse DAS assay. Angiogenesis was induced by overexpressed human VEGF121 (KP-1/VEGF) or mouse FGF4 (KP-1/FGF) in human pancreatic cancer KP-1 cells at the mouse dorsal skin. Representative photographs are shown. […] Compounds were administered orally once daily for 4 days at the indicated doses. Data are the mean ± std. *: p < 0.05 and **: p < 0.01 compared to vehicle.

[30] = tested on: VEGF-driven in vivo angiogenesis (KP-1/VEGF transfectants); assay: Mouse dorsal air sac (DAS) assay, KP-1/VEGF; details: 100 and 300 mg/kg, orally once daily for 4 days
Protocol: as §6, §7

[31] = 1 mg/kg orally twice daily for 14 days
[32] = 3 mg/kg orally twice daily for 14 days
[33] = 10 mg/kg orally twice daily for 14 days
[34] = 30 mg/kg orally twice daily for 14 days
[35] = 100 mg/kg orally twice daily for 14 days
[36] = 1 mg/kg orally twice daily for 28 days
[37] = 3 mg/kg orally twice daily for 28 days
[38] = 10 mg/kg orally twice daily for 28 days
[39] = 30 mg/kg orally twice daily for 28 days
[40] = 100 mg/kg orally twice daily for 28 days

T5 sequence (P35916 25-1363): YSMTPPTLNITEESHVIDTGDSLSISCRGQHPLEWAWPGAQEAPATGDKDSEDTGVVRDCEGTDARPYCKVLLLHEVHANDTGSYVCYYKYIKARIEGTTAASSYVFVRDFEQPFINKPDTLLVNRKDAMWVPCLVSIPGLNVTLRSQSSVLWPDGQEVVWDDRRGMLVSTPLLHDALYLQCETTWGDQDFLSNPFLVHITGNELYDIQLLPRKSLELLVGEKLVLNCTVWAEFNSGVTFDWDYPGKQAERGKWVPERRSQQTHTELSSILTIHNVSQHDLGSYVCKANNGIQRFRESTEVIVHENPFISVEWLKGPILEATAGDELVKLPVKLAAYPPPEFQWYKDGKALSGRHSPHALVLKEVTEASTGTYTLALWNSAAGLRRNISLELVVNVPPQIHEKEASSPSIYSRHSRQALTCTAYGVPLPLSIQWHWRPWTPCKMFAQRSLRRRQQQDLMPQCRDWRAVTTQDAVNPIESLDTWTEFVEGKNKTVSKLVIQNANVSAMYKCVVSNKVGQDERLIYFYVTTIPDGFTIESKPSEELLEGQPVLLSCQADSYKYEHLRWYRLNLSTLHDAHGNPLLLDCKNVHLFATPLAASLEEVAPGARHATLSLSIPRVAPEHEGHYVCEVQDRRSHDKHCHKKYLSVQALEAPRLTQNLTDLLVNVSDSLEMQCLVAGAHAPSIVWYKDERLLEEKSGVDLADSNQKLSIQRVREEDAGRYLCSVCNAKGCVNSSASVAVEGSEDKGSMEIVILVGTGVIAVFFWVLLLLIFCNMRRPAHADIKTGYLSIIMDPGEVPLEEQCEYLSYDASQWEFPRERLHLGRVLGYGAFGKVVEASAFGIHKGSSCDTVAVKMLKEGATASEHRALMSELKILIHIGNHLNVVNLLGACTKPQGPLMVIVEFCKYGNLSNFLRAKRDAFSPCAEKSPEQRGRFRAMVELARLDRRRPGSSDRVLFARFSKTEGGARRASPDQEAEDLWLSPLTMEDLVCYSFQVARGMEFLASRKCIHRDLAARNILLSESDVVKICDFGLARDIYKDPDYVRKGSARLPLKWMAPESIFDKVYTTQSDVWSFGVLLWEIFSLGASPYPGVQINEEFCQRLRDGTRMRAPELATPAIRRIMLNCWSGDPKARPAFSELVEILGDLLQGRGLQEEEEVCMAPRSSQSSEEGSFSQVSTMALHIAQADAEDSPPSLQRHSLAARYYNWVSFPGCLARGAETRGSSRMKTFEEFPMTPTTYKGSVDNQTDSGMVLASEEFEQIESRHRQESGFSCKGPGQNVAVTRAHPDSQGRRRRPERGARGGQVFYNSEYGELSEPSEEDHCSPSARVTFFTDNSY
T1 sequence (P21802 22-821): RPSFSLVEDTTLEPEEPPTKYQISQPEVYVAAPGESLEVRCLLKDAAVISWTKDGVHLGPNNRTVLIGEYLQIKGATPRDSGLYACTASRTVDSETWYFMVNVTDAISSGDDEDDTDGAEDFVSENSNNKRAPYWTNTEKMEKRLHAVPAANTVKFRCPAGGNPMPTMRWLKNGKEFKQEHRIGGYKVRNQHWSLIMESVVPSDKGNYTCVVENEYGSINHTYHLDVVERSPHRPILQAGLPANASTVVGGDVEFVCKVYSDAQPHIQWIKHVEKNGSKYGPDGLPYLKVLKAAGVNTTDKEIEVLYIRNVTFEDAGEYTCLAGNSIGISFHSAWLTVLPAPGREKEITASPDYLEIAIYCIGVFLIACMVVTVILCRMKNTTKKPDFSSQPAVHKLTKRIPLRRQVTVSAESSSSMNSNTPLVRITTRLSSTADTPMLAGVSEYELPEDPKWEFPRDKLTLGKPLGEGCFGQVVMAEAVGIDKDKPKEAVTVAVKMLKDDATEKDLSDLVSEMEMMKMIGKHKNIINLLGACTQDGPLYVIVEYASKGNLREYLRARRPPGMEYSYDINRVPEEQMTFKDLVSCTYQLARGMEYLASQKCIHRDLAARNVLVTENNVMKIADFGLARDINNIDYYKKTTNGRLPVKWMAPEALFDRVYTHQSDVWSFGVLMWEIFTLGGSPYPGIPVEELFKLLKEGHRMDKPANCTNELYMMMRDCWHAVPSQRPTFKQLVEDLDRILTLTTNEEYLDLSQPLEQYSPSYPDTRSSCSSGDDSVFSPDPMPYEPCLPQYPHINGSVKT
T6 sequence (P22607 23-806): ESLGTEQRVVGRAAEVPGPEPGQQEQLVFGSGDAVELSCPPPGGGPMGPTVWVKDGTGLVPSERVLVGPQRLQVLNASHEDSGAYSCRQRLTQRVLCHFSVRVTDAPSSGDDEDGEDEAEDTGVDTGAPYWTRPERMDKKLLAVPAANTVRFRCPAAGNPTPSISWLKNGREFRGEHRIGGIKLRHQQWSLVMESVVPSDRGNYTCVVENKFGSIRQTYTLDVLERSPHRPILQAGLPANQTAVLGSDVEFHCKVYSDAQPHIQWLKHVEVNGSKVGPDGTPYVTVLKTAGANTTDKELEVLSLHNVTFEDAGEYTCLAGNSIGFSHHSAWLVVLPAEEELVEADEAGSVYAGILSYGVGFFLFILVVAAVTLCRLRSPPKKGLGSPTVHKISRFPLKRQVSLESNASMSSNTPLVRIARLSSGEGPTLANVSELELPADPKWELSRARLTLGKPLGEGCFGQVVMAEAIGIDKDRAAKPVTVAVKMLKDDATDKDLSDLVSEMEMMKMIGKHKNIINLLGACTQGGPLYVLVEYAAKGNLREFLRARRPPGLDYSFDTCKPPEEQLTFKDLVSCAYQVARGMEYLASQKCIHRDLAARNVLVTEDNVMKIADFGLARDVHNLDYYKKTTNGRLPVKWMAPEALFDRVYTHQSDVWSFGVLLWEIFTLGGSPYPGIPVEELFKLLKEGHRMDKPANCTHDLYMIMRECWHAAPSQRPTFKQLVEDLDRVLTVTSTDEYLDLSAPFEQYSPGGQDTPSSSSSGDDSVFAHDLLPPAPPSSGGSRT
T4 sequence (P10721 26-976): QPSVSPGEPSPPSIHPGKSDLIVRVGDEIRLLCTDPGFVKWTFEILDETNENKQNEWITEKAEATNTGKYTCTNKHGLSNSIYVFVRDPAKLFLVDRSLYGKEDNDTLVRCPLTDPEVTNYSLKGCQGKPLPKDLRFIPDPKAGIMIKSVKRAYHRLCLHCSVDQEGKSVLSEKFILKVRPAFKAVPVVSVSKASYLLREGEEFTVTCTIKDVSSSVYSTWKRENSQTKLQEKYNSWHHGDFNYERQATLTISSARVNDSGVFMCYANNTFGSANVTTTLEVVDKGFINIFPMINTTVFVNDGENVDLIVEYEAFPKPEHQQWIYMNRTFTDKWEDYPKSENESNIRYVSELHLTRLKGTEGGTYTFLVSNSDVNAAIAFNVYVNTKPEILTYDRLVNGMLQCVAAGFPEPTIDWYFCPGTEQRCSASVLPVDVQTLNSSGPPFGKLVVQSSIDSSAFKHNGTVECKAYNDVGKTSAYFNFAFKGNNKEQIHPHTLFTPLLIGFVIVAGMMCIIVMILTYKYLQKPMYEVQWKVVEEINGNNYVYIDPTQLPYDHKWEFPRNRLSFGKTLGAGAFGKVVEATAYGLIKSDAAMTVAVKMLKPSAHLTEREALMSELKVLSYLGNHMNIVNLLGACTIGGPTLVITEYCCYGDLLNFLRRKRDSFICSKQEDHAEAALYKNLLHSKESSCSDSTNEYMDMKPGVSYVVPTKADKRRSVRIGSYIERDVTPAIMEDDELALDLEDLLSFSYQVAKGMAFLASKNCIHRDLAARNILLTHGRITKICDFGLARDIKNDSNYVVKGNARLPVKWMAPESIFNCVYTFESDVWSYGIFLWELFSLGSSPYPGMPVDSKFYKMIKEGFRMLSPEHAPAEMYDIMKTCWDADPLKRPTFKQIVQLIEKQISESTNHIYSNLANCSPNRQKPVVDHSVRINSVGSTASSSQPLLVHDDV
T2 sequence (P11362 22-822): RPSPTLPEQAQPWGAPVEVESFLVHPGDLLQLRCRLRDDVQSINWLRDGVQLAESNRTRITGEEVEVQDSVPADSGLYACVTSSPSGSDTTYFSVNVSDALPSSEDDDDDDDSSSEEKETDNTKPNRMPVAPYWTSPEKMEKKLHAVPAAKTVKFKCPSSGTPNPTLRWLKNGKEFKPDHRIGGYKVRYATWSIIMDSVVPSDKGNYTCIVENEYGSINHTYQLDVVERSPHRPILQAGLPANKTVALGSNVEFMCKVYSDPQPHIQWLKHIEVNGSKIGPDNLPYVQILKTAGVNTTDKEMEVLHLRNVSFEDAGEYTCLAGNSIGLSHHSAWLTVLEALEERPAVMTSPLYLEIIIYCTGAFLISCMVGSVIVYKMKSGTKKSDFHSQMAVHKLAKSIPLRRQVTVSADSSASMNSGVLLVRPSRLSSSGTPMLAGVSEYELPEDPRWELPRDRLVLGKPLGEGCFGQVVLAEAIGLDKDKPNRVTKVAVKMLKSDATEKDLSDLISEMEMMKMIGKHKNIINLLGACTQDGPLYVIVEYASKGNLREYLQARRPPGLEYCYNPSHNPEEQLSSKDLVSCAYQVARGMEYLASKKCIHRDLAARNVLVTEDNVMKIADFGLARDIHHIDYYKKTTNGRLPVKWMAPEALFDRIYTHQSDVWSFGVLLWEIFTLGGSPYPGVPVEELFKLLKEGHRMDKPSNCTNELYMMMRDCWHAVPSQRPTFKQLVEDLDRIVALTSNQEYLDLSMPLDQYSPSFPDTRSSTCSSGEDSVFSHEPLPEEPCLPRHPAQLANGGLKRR

**Q.** What does the source list for COc1cc2nccc(Oc3ccc(NC(=O)NC4CC4)c(Cl)c3)c2cc1C(N)=O [lenvatinib, 4-[3-Chloro-4-(N’-cyclopropylureido)phenoxy]-7-methoxyquinoline-6-carboxamide]?
**A.** ΔTV (%) lenvatinib (mg/kg) 1 [1, 31]: 43.8* %; ΔTV (%) lenvatinib (mg/kg) 3 [1, 32]: 23.1* %; ΔTV (%) lenvatinib (mg/kg) 10 [1, 33]: 12.8* %; ΔTV (%) lenvatinib (mg/kg) 30 [1, 34]: -4.5* %; ΔTV (%) lenvatinib (mg/kg) 100 [1, 35]: -21.3* %; Antitumor activity, SEKI model [2]: no effect; Ki [3]: 8.2 nM; IC50 [4]: 590 nM; ΔTV (%) lenvatinib (mg/kg) 1 [5, 31]: 52.3* %; ΔTV (%) lenvatinib (mg/kg) 3 [5, 32]: 39.6* %; ΔTV (%) lenvatinib (mg/kg) 10 [5, 33]: 12.2* %; ΔTV (%) lenvatinib (mg/kg) 30 [5, 34]: 8.3* %; ΔTV (%) lenvatinib (mg/kg) 100 [5, 35]: -15.6* %; IC50 [6]: 3.4 nM; ΔTV (%) lenvatinib (mg/kg) 1 [7, 31]: 65.4%; ΔTV (%) lenvatinib (mg/kg) 3 [7, 32]: 34.9* %; ΔTV (%) lenvatinib (mg/kg) 10 [7, 33]: 16.3* %; ΔTV (%) lenvatinib (mg/kg) 30 [7, 34]: 16.4* %; ΔTV (%) lenvatinib (mg/kg) 100 [7, 35]: -0.8* %; Ki [8]: 22 nM; IC50 [9]: 26300 nM; Losses of body weights ([10]; 100 mg/kg twice daily for 4 weeks, observed in 3 out of 7 models): < 10%; MTD at 4 weeks ([10]; mouse, in vivo, oral, tumor xenograft models, read-out: Maximum tolerated dose (MTD)): 100 mg/kg; IC50 [11]: 30800 nM; IC50 [12]: 19600 nM; ΔTV (%) lenvatinib (mg/kg) 1 [13, 31]: 56.1* %; ΔTV (%) lenvatinib (mg/kg) 3 [13, 32]: 49.9* %; ΔTV (%) lenvatinib (mg/kg) 10 [13, 33]: 30.1* %; ΔTV (%) lenvatinib (mg/kg) 30 [13, 34]: 15.3* %; ΔTV (%) lenvatinib (mg/kg) 100 [13, 35]: 12.5* %; ΔTV (%) lenvatinib (mg/kg) 1 [14, 31]: 41.7%; ΔTV (%) lenvatinib (mg/kg) 3 [14, 32]: 29.4* %; ΔTV (%) lenvatinib (mg/kg) 10 [14, 33]: 0.0* %; ΔTV (%) lenvatinib (mg/kg) 30 [14, 34]: -7.5* %; ΔTV (%) lenvatinib (mg/kg) 100 [14, 35]: -32.9* %; IC50 [15]: 27500 nM; Ki [16]: 1.3 nM; IC50 [17]: 2.7 nM; ΔTV (%) lenvatinib (mg/kg) 1 [18, 36]: -7.5* %; ΔTV (%) lenvatinib (mg/kg) 3 [18, 37]: -42.2* %; ΔTV (%) lenvatinib (mg/kg) 10 [18, 38]: -65.4* %; ΔTV (%) lenvatinib (mg/kg) 30 [18, 39]: -72.0* %; ΔTV (%) lenvatinib (mg/kg) 100 [18, 40]: -78.6* %; Ki [19]: 11 nM; ΔTV (%) lenvatinib (mg/kg) 1 [20, 36]: 55.7* %; ΔTV (%) lenvatinib (mg/kg) 3 [20, 37]: 56.9* %; ΔTV (%) lenvatinib (mg/kg) 10 [20, 38]: 40.2* %; ΔTV (%) lenvatinib (mg/kg) 30 [20, 39]: 21.2* %; ΔTV (%) lenvatinib (mg/kg) 100 [20, 40]: 25.7* %; IC50 [21]: 410 nM; IC50 [22]: 30800 nM; IC50 [23]: 26400 nM; Ki [24]: 0.71 nM; IC50 [25]: 33800 nM; Ki [26]: 15 nM; IC50 [27]: 24200 nM

**Q.** With CNC(=O)c1cc(Oc2ccc(NC(=O)Nc3ccc(Cl)c(C(F)(F)F)c3)cc2)ccn1 [sorafenib, reference compound] as the compound, how does the IC50 [28] read?
**A.** 2000 nM

**Q.** And the “Inhibition of FGF-driven in vivo angiogenesis, KP-1/FGF DAS assay” value [29]?
**A.** did not inhibit

**Q.** What about the “Antiangiogenic activity, KP-1/VEGF DAS model” value [30] of the same compound?
**A.** selective antiangiogenic activity
